For 13 molecules, IC50 results are on record in patent US5231091A, “Bis-arylphosphate ester antagonists of platelet activating factor” (priority 1992, dated 1993).

Counter-ions that a name gives are not always drawn.

The target of one assay is T1, PAF receptor (Oryctolagus cuniculus, UniProt G1TEI7).
T1 construct: endogenous in cells; host or cells: rabbit platelets (male New Zealand White)
T1 sequence (G1TEI7 1-342): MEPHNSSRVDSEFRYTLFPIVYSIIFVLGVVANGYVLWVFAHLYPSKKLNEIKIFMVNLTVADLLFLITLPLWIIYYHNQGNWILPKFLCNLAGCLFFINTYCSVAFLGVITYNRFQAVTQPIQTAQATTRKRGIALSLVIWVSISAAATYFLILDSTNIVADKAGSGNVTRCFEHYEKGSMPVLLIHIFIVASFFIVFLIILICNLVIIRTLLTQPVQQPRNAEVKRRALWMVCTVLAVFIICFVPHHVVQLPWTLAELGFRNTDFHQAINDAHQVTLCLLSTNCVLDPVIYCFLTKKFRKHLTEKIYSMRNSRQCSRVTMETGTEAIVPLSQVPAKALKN
Put plainly: Inhibition of PAF-induced aggregation in rabbit platelet rich plasma.
Settings: not given
It is filed as cell-based, rabbit (male New Zealand White). The method, then:
Test compounds were evaluated as PAF receptor antagonists in vitro by measuring inhibition of PAF (platelet activating factor) induced platelet aggregation. Platelet aggregation was measured by a modification of the method described in A. Wissner, et. al., J. Med. Chem., 27, 1174, 1984.
Approximately 120-240 ml of blood were collected by cardiac puncture from unanesthetized male New Zealand White rabbits (Whaley's Summit View Farms, Belvedere, N.J.) with the use of 3.2% sodium citrate anticoagulant (1 part of citrate/10 parts of blood). All syringes and pipets were plastic. The blood was gently mixed and immediately centrifuged at 800 rpm for 10-15 minutes at room temperature to recover the platelet rich plasma (PRP). Platelet poor plasma (PPP) was prepared by centrifuging PRP at 2800 rpm for 10 minutes at room temperature.
Dilutions (1:3000) of PRP in Isoton® diluent were made and platelet counts were determined on a Coulter Thrombocounter which was standardized with platelet reference standards (Interscience Platelet Control, Portland, Oreg.). PRP platelet counts were adjusted to approximately 400,000-500,000 platelets/μl by the addition of PPP.
L-PAF was obtained from Calbiochem. A stock solution of 1-2 E-3M was prepared in 10% ethanol in water or 100% methanol and serial working dilutions were made using phosphate buffered saline (PBS). 1-2 E-3M stock solutions of test compounds were prepared in 100% methanol and serially diluted in PBS. All solutions were made up in plastic tubes, stored on ice and protected from heat and light. Solutions were prepared fresh or frozen at -20° C. and used within 48 hours.
Incubation mixtures consisted of 400 μl PRP, 50 μl of PBS diluent or test compound and 50 μl of PAF agonist. More specifically, 400 μl of PRP was stabilized in a cuvette for 1-2 minutes at 37° C. in the aggregometer to achieve a stable baseline, then 50 μl of PBS or test compound, was added and incubated for 5 minutes before addition of the challenge concentration of PAF (final concentration of 5E-8M or 1E-7M, as determined from the dose response curve for PAF for that experiment). Aggregation was monitored for 5 minutes. Samples containing test compound or diluent were run simultaneously for comparison. Test compounds were initially evaluated at a screening concentration of 1E-5M.
The recording equipment consisted of a dual channel Chronolog aggregometer connected to a dual channel 10 MV full scale deflection Omniscribe chart recorder (Houston Instruments). […] The bead suspension was used to set the 0% light transmission mark and clear water was used to set the 100% light transmission mark. These limits defined a full scale deflection. The aggregation traces were analyzed by a digitizing method (C. Kohler and B. Zoltan, J. Pharm. Methods, 12, 113, 1984) with x, y coordinate data stored in a computer file. A suitable program computed parameters of interest such as the magnitude of aggregation.
The term IC50 denotes the concentration that inhibits the measured activity by half. As for `CCCCCCCCCCCCCCCCCCNC(=O)Oc1cccc(OP(=O)([O-])Oc2cccc(C[n+]3ccsc3)c2)c1C` [3-[[3-[[Hydroxy[2-methyl-3-[[(octadecylamino)carbonyl]oxy]phenoxy]phosphinyl]oxy]phenyl]methyl]thiazolium, hydroxide, inner salt], the IC50 came out at 3.72 µM.

Regarding `CCCCCCCCCCCCCCCCCCNC(=O)Oc1cccc(OP(=O)([O-])Oc2cccc(C[n+]3csc(C)c3)c2)c1C` [3-[[3-[[Hydroxy[2-methyl-3-[[(octadecylamino)carbonyl]oxy]phenoxy]phosphinyl]oxy]phenyl]methyl]-5-methylthiazolium, hydroxide, inner salt], the IC50 is 1.8 µM.

The same assay, now with this note: rabbit platelet rich plasma; PAF challenge 5E-8M; number of experiments in parentheses; read-out: IC50 inhibition of PAF-induced aggregation.
Turning to `CCCCCCCCCCCCCCCCOc1cccc(OP(=O)([O-])Oc2ccccc2C[n+]2ccsc2)c1` [3-[[2-[[[3-(Hexadecyloxy)phenoxy]hydroxyphosphinyl]oxy]phenyl]methyl]-thiazolium, hydroxide, inner salt], the IC50 amounted to 6.36 µM.

Regarding `CCCCCCCCCCCCOc1cccc(OP(=O)([O-])Oc2cccc(C[n+]3cccc4ccccc43)c2)c1OC` [-[[3-[[[3-(Dodecyloxy)-2-methoxyphenoxy]hydroxyphosphinyl]oxy]phenyl]methyl]quinolinium, hydroxide, inner salt], the IC50 was determined as 24.7 µM.

Take `CCCCCCCCCCCCOc1ccc2ccc(OP(=O)([O-])Oc3cccc(C[n+]4ccsc4)c3)cc2c1` [3-[[3-[[[[7-(dodecyloxy)-2-naphthalenyl]oxy]hydroxyphosphinyl]oxy]phenyl]methyl]thiazolium, hydroxide, inner salt]: the IC50 stood at 26.4 µM.

Consider `CCCCCCCCCCCCCCCCOc1cccc(OP(=O)([O-])Oc2cccc(C[n+]3cccc4ccccc43)c2)c1C` [1-[[3-[[[3-(hexadecyloxy)-2-methylphenoxy]hydroxyphosphinyl]oxy]phenyl]methyl]quinolinium], for which the IC50 came to 29.6 µM.

In the case of `CCCCCCCCCCCCOc1cccc(OP(=O)([O-])Oc2cccc(C[n+]3ccsc3)c2)c1` [3-[[3-[[[3-(Dodecyloxy)phenoxy]hydroxyphosphinyl]-oxy]phenyl]methyl]thiazolium, hydroxide, inner salt], the IC50 came to 52.8 µM.

With `Cc1c[n+](Cc2cccc(OP(=O)([O-])Oc3ccc(OCc4ccccc4)cc3)c2)cs1` [3-[[3-[[Hydroxy[4-(phenylmethoxy)phenoxy]phosphinyl]oxy]phenyl]methyl]-5-methyl-thiazolium, hydroxide, inner salt], the 50% inhibitory concentration (IC50) is 1530 µM.

Regarding `CCCCCCCCCCCCCCOc1cccc(OP(=O)([O-])Oc2cccc(C[n+]3ccccc3)c2)c1OC` [1-[[3-[[Hydroxy[2-methoxy-3-(tetradecyloxy)phenoxy]-phosphinyl]oxy]phenyl]methyl]-pyridinium, hydroxide, inner salt], the IC50 stood at 165 µM.

As to `CCCCCCCCCCCCOc1cccc(OP(=O)([O-])Oc2cccc(C[n+]3ccsc3)c2)c1OC` [3-[[3-[[[3-(Dodecyloxy)-2-methoxyphenoxy]hydroxyphosphinyl]oxy]phenyl]methyl]thiazolium, hydroxide, inner salt], the IC50 was 1.72 µM.

In the case of `CCCCCCCCCCCCCCOc1cccc(COP(=O)([O-])Oc2cccc(C[n+]3ccsc3)c2)c1` [3-[[3-[[Hydroxy[[3-(tetradecyloxy)phenyl]methoxy]-phosphinyl]oxy]phenyl]methyl]thiazolium, hydroxide, inner salt], the IC50 is 4.22 µM.

Turning to `CCCCCCCCCCCCCCOc1cccc(OP(=O)([O-])Oc2cccc(C[n+]3csc(C)c3)c2)c1` [3-[[3-[[Hydroxy[3-(tetradecyloxy)phenoxy]phosphinyl]-oxy]phenyl]methyl]-5-methyl-thiazolium, hydroxide, inner salt], the half-inhibitory concentration (IC50) was 8.82 µM.

Consider `CCCCCCCCCCCCCCOc1ccccc1OP(=O)([O-])Oc1cccc(C[n+]2ccsc2)c1` [3-[[3-[ [Hydroxy[2-(tetradecyloxy)phenoxy]phosphinyl]-oxy]phenyl]methyl]thiazolium, hydroxide, inner salt], for which the concentration for half-maximal inhibition (IC50) worked out at 57.5 µM.
